ChEMBL document CHEMBL1157539, “Thousands of chemical starting points for antimalarial lead identification” (Nature, 2010)

Each compound was assayed on Plasmodium falciparum (assay: GSK_TCMDC: Inhibition of Plasmodium falciparum 3D7 in whole erythrocytes, using parasite LDH activity as an index of growth.). Settings: Plasmodium falciparum, 3D7.
Type: functional, organism-based

SMILES	XC50
O=C1NC(=S)N/C1=C/C=C/c1ccc([N+](=O)[O-])o1	1070 nM
Cc1cc(N/N=C/c2ccc([N+](=O)[O-])cc2)c2ccc(F)cc2n1	888 nM
Cc1cc(=O)c(-c2ccc(Oc3ccc(OC(F)(F)F)cc3)cc2)c(C)[nH]1	363 nM
COC(=O)c1ccc2nc(-c3ccc(/C=C/C(=O)NCc4ccc(Cl)c(Cl)c4)cc3)[nH]c2c1	1340 nM
CCOc1ccc(CN(CCc2ccc3c(c2)OCO3)Cc2cc(OC)ccc2O)cc1	753 nM
CCN(CCCN1CCCCC1)c1cc(C)nc(Nc2cc(C(F)(F)F)ccc2C)n1	862 nM
NS(=O)(=O)CCc1cccc(Nc2nccc(-c3c(-c4cccc(NC(=O)c5c(F)cccc5F)c4)nn4ccccc34)n2)c1	58.4 nM
CNS(=O)(=O)c1ccc2c(c1)nc(C1CCN(CC3CCC(NC(=O)/C=C/c4ccc(Cl)c(Cl)c4)CC3)CC1)n2C (stereo unspecified)	670 nM
O=C(NCCc1cccc(F)c1)c1ccc(N2CCN(c3ccncc3)CC2)cn1	1020 nM
CC(C)NCc1ccc(-c2ccc(NC(=O)c3cccc(Cl)c3)cc2)cc1	962 nM
COc1cc(NCCCNCc2cn(Cc3cc(Br)cc(Br)c3)c3ccccc23)nc2ccccc12	185 nM
O=C(Nc1cccc(C(F)(F)F)c1)c1cccc(S(=O)(=O)NCC2CCCN(Cc3ccccc3)C2)c1 (stereo unspecified)	1100 nM
Clc1ccc(CNc2ccnc(NCc3ccc4c(c3)OCCCO4)n2)c(Cl)c1	994 nM
Cc1ccccc1OCC(O)CNC1CCC(NCC(O)COc2ccccc2C)CC1 (stereo unspecified)	1190 nM
O=C(Nc1ccc(C(F)(F)F)cc1)c1cccc(S(=O)(=O)NCC2CCCN(CC3CCCCC3)C2)c1 (stereo unspecified)	750 nM
Cc1cc(N[C@@H](Cc2ccccc2)C(=O)NCc2cccs2)nc(Nc2ccccc2)n1	1240 nM
CNCCCCCCc1ccc(CC(C)NCC(O)c2cccc(Cl)c2)cc1 (stereo unspecified)	854 nM
O=C(/C=C/c1ccccc1O)NCCCCCN1CCC(c2c[nH]c3ccccc23)CC1	827 nM
CC(=O)Nc1ccc(CN2CCC(N(C)c3cc(NC(=O)c4cccc(F)c4)ccn3)CC2)cc1	1380 nM
Oc1cc(Nc2ccnc3cc(I)ccc23)c(F)cc1Cl	832 nM
CN(CCCN(C)c1cc(NC(=O)c2cccc(F)c2)ccn1)Cc1cccc(O)c1	1920 nM
N#Cc1ccc(N(CCOC(=O)c2ccc(Br)s2)Cc2ccccc2C(F)(F)F)cc1C(F)(F)F	1070 nM
NS(=O)(=O)c1cncc(-c2ccc3nccc(-c4cn[nH]c4)c3n2)c1	526 nM
CCCCCCN(C(=O)OCc1ccccc1)C1CCN(C(=O)OC(C)(C)C)CC1C(=O)OCC (stereo unspecified)	366 nM

SMILES	XC50
COCc1nc(N)nc(N)c1-c1ccc(Cl)c(Cl)c1	1020 nM
COc1cc(OC)nc(C(Sc2ccc(NC(=O)c3cccs3)cc2)c2ccccc2)n1 (stereo unspecified)	57.5 nM
Cc1ccccc1C1CCN(C2CCC(NC(=O)c3cc4cc(Cl)ccc4o3)CC2)CC1 (stereo unspecified)	1200 nM
COc1ccc2ncc(F)c(CCN3CCC4(CC3)COC(c3cc5c(cn3)OCCO5)=N4)c2n1	216 nM
Cc1cc(-c2nc3ccc(CN4CCN(C)CC4)cc3[nH]2)nn1Cc1cc(Cl)ccc1OCc1ccccc1	1120 nM
O=C(Nc1ccc(Cn2ncc(N3CCCNCC3)c(Cl)c2=O)cc1)Nc1cccc(Oc2ccccc2)c1	987 nM
O=C(N[C@H]1CCN(Cc2ccc(OCCCN3CCCCC3)cc2)C1)c1ccc(Oc2ccccc2)cc1	784 nM
Cc1ccc2[nH]c(-c3ccc(C=CC(=O)NCc4ccc(Cl)c(Cl)c4)cc3)nc2c1	901 nM
Cc1cccc2nc(-c3ccc(-c4cccc(CN5CCCC(N)C5)c4)s3)[nH]c12 (stereo unspecified)	539 nM
Cc1cccc(Nc2nc(C)cc(N3CCCN(CC4CCCCC4)CC3)n2)c1	1120 nM
COc1cc(Cc2cnc(N)nc2N)cc(OCc2cccc(C(=O)O)c2)c1OC	835 nM
COc1ccc(NC(=O)NC2CCN(c3ccnc4cc(Cl)ccc34)CC2)cc1	731 nM
N#Cc1ccc(CNCCCCCCCNCc2ccc(-c3ccccc3)cc2)cc1	970 nM
Cc1cc(N(C)CCN(C)C)nc(Nc2ccc(Cl)cc2)n1	968 nM
CCCCOC(=O)C1=C(C)NC2=C(C(=O)CCC2)C1c1ccc(OC)c(Br)c1 (stereo unspecified)	603 nM
COc1cc(NC(=O)/C=C/c2cccc3ccoc23)ccc1OCCN(C(C)C)C(C)C	1040 nM
Cc1[nH]cnc1CSCCNC(=N)NCCCCCCCCNC(=N)NCCSCc1nc[nH]c1C	268 nM
Cc1ccc2nc3c(cc(C(=O)NCCc4ccccc4)c(=N)n3CCCOC(C)C)c(=O)n2c1	892 nM
Cc1cccc(C)c1N1CCN(C2CCC(NC(=O)c3cc4ccccc4[nH]3)CC2)CC1 (stereo unspecified)	601 nM
CC(Nc1ccc2c(c1)OCCO2)C(=O)Nc1cc(C(F)(F)F)ccc1N1CCOCC1 (stereo unspecified)	408 nM
CN1CCCN(Cc2cccc(-c3ccc(NS(=O)(=O)c4cccc5cccnc45)cc3)c2)CC1	957 nM
FC(F)(F)c1ccc2[nH]c(-c3cccc(-c4ccc(CNCc5ccccc5)cc4)c3)nc2c1	163 nM
O=C(Nc1cccc(-c2ccc(CN3CCCC3)cc2)c1)c1cccc(Cl)c1	430 nM
CC1CC(C)CN(S(=O)(=O)c2cc(C(=O)Nc3cccc([N+](=O)[O-])c3)ccc2Br)C1 (stereo unspecified)	898 nM

SMILES	XC50
N#Cc1ccc(C(=O)Nc2cccc(-c3ccc(CN4CCCC4)cc3)c2)cc1	723 nM
CN(C)c1c(CNCCCCCCNCc2ccc3ccccc3c2N(C)C)ccc2ccccc12	463 nM
O=C(Cc1ccccc1)NC(CCN1CCC(N(C2CC2)S(=O)(=O)c2cccc(C(F)(F)F)c2)CC1)c1ccc(Cl)c(Cl)c1 (stereo unspecified)	1270 nM
CCN(CC)CCNC(=O)c1ccc(NC(=O)c2cc3c(C)nn(-c4ccc(Cl)cc4)c3s2)cc1	253 nM
CCCCCC(C)C(C)c1cc(O)c2c3c(c(=O)oc2c1)CN(Cc1ccccc1)CC3 (stereo unspecified)	605 nM
CC(C)C[C@H](NC(=O)c1cc2ccccc2s1)C(=O)N[C@H]1CCN(Cc2ccc(OCCCN(C)C)c(Cl)c2)C1	901 nM
COc1ccc2nccc([C@@H](O)CN3CCC(NCc4cc5oc(=O)[nH]c5cc4Cl)CC3)c2c1	380 nM
COc1ccc2nc3cc(Cl)ccc3c(Nc3ccc(C(=O)O)cc3)c2c1	301 nM
CS(=O)(=O)Cc1ccc(Nc2nccc(-c3c(-c4cccc(NC(=O)c5c(F)cccc5F)c4)nn4ccccc34)n2)cc1	150 nM
Cc1cc(OCCCN2CCN(CCN3CCOCC3)CC2)ccc1NC(=O)COc1ccc(Cl)cc1C(=O)c1cc(Cl)cc(C#N)c1	697 nM
C[C@@H](N)C#Cc1cc2c(Nc3ccc(OCc4cccc(F)c4)c(Cl)c3)ncnc2s1	1060 nM
CCC(CC)(Cc1ccccc1)NC(=O)[C@H](CC(C)C)Nc1ccc(C#N)c2ccccc12	913 nM
Cc1n[nH]c2cc(F)c(-c3cc(OC[C@@H](N)Cc4ccccc4)cnc3-c3ccoc3)cc12	1040 nM
CCOC(=O)NC1=NC(=N)N(OCCCOc2cc(Cl)c(Cl)cc2Cl)C(C)(C)N1	3.2 nM
CCOc1c(N2CCN(CCCCNC(=O)c3ccc(NC(=O)c4ccc(Cl)cc4)cc3)CC2)ccc2ccccc12	684 nM
N#Cc1ccc(-c2ccc(C(=O)NC3CCN(CCN4CCc5c(cccc5C(F)(F)F)C4)CC3)cc2)cc1	703 nM
O=C(Nc1cccc(-c2ccc(CN3CCC(O)CC3)cc2)c1)c1cccc(Cl)c1	764 nM
COc1ccc2nccc([C@@H](O)CN3CCC(NC(=O)Cc4cc5ccccc5s4)CC3)c2c1	906 nM
CCc1cn2c3c(cc(C(=O)N[C@@H](Cc4ccccc4)[C@H](O)CNC4CCOCC4)cc13)N(C(C)C)S(=O)(=O)CC2	83.6 nM
NC(=O)C1CCN(Cc2cccc(-c3cccc(-c4nc5cc(F)ccc5[nH]4)c3)c2)CC1	853 nM
CCOC(=O)c1nc2ccc(SC3CCCCC3)cn2c1Br	1060 nM
FC(F)(F)COc1ccc2ccccc2c1CCNCCCCNCCc1c(OCC(F)(F)F)ccc2ccccc12	426 nM
CC1CN(c2cc(=O)n(Cc3ccc(NC(=O)Nc4ccc(-c5ccccc5)cc4)cc3)cn2)CC(C)N1 (stereo unspecified)	974 nM
O=C(/C=C/c1ccc(Cl)c(Cl)c1)NCCCCCN1CCC(C(=O)Nc2cccc(Cl)c2)CC1	681 nM

SMILES	XC50
COc1ccc(CCNCc2ccc3nc(N)cc(C)c3c2)cc1	214 nM
O=S(=O)(Nc1cccc(CCN2CCC(N3CCCCC3)CC2)c1)c1ccc(Oc2ccccc2)cc1	769 nM
Cc1ccc(NC(=O)c2cccc(CN3CCCN(Cc4cccc(O)c4)CC3)c2)cc1C	1040 nM
CC(C)CCCC(C)NC[C@@H](O)[C@H](Cc1ccccc1)NC(=O)c1cc(N2CCCC2=O)cc(N(c2ccccc2)S(C)(=O)=O)c1 (stereo partly specified)	58.4 nM
N#Cc1ccc(-c2ccc(C(=O)NCCCCN3CCC(c4ccc5c(c4OCC(N)=O)CCCC5)CC3)nc2)cc1	730 nM
O=C(NCC1CCC(CNCCCc2ccccc2)CC1)Nc1ccc(Cl)c(Cl)c1 (stereo unspecified)	767 nM
CN(C(=O)Cc1ccc(Cl)cc1)C1CCN(CCCCCNC(=O)/C=C/c2ccc(Cl)c(Cl)c2)CC1	719 nM
C=CCOC(=O)N1CCC(CNCc2cccc(-c3ccc(-c4nc5ccccc5[nH]4)s3)c2)C1 (stereo unspecified)	272 nM
CCN(CCNS(C)(=O)=O)c1ccc(N)c(C)c1	875 nM
O=C(NCCCc1ccccc1)c1csc(C2CCCN(C(=O)c3ccc(O)c(-c4ccccc4)c3)C2)n1 (stereo unspecified)	913 nM
c1ccc(CCNCc2ccc(-c3ccc(CNc4ccc5ncccc5c4)cc3)cc2)cc1	916 nM
Cc1[nH]c2ccccc2c1C1=CCN(CCCCCNC(=O)/C=C/c2ccc(Cl)c(Cl)c2)CC1	272 nM
Cc1cc(N2CCOCC2)nc(Nc2ccc(NC(=O)c3cccc4ccccc34)cc2)n1	1300 nM
O=C(NCc1ccccc1)NC1CCN(c2ccnc3cc(Cl)ccc23)C1 (stereo unspecified)	158 nM
CC(C)Cn1ccc2c3c(N)nc(N)nc3ccc21	34.2 nM
C/C=C1/CN2CC[C@H]1C[C@H]2[C@H](O)c1ccnc2ccc(OC)cc12	199 nM
O=C(NCCc1ccc(F)cc1)c1ccc(N2CCN(c3ccncc3)CC2)nc1	1420 nM
O=c1cc(NCCCCNCc2cccc(Cl)c2)[nH]c2ccccc12	743 nM
Cc1cc(-c2ccc3c(c2)CC[C@@H](N[C@@H](C)c2ccccc2)C3)cnc1N	1730 nM
Cc1ccc(-c2nc3ccccc3o2)cc1NCc1cc(Cc2ccccc2)ccc1O	1030 nM
CN(C)c1ccc(-c2csc(C(=O)NCC3CCN(Cc4ccc(C(C)(C)C)cc4)C3)c2)cc1 (stereo unspecified)	986 nM
O=c1cc(NCCCNCc2csc(Br)c2Sc2ccc(Cl)cc2)[nH]c2ccccc12	849 nM
O=C(N[C@H]1CCN(CCc2ccc(O[C@H]3CCNC3)c(Br)c2)C1)c1ccc(Cl)c(Cl)c1	658 nM
C(=NN=c1cc[nH]c2ccccc12)c1ccncc1	743 nM
